This passage reports luciferase activity results from patent US20240141408A1, “CELL-BASED ASSAY FOR IDENTIFICATION OF ACTIVATORS OF GAMMA-SECRETASE” (The Brigham and Women’s Hospital, Inc., priority 2021, published 2024).

For this assay, the system named is γ-secretase. Nature of the assay: Notch target gene reporter (Hes1-Luc / NotchΔE) luciferase assay in stable MEFs. Format: cell-based, mouse. The following applies: L435F KI/+ stable cells, clone A23; FIG. 4. Here is the method: For screening, cells were seeded in 384-well plates using Thermo Multidrop Combi at a density of 2,500 cells in 30 μl media and compounds were transferred by Seiko Compound Transfer Robot on the same day. For dose response, compounds were dispensed via the Hewlett Packard D300.
The steady glo luciferase assay system (Promega) was used to determine firefly luciferase activity per manufacturer's instructions. Luciferase activity was detected 24 hours after transfection using a plate reader (Perkin Elmer EnVision).
MEFs (1.5×10^6) were seeded in two 10-cm tissue culture plates; one to be used as a negative control. The next day, one plate is transfected with 9 μg CMV-NotchΔE (neomycin) and […] Hes1Luciferase (hygromycin) plasmids. 24-hours later, cells in both plates were passaged 1:100, 1:200 and 1:1000 and maintained in DMEM media supplied with 10% FBS, 100 ug/ml Hygromycin, and 200 μg/ml G418. Media was changed every 3 days and cells were checked daily ensuring that cells in the untransfected plates (negative control) have died. Within two weeks, hygromycin/G418 resistant colonies were formed with a diameter of approximately 5 mm. Each clone was transferred into a separate well of a 24-well plate. When confluent, MEFs were transferred into 6-well plates then into 10 cm dishes. For each clone, some cells were frozen while others harvested to test luciferase and notchΔE expression via luciferase assay, western blot and Q-RT-PCR.
For the identification of compounds that could increase the activity of γ-secretase, a Notch target gene reporter system was created. It contains two plasmids: Hes1 proximal promoter containing two Notch responsive CBF1/RBPJκ binding sites driving expression of a firefly luciferase in a hygromycin resistant plasmid (Hes1-Luc-Hygro), and CMV promoter and NotchΔE cloned in a neomycin resistant plasmid (CMV-NΔE-Neo) (FIG. 1A).
For the identification of compounds that could increase γ-secretase activity, L435F KI/+ stable cells expressing both CMV-NΔE-Neo and Hes1-Luc-hygro were generated. Luciferase expression in the selected clones was confirmed via a luciferase assay (FIG. 3A). We also performed quantitative RTPCR using primers specific for luciferase and Notch-cMyc to confirm their expression (FIG. 3B-C).
After generating the stable cells, 384-well plates were optimized in the EnVision plate reader for plate dimension, and crosstalk correction. To provide a robust (high Z′ factor) HTS-compatible assay, four clones expressing different levels of NotchΔE and luciferase (FIG. 3A-C, black arrows) were compared to identify the maximum difference in signal between DMSO, and DAPT (γ-secretase inhibitor), as well as genetic positive (a clone expressing high levels of luciferase) controls. […]
With `C[C@H](NC(=O)Cc1cc(F)cc(F)c1)C(=O)N[C@H](C(=O)OC(C)(C)C)c1ccccc1` [DAPT], the luciferase activity result is “reduction of luciferase activity”.

As to `COc1ccc2c(c1)c(CC(=O)O)c(C)n2C(=O)c1ccc(Cl)cc1` [Indomethacin], the luciferase activity result is “lesser effect”.

In the case of `C[C@@H](C(=O)O)c1ccc(-c2ccccc2)c(F)c1` [R-Flurbiprofen], the luciferase activity entry is “lesser effect”.

Take `CC(C)C[C@H](NC(=O)[C@H](Cc1ccccc1)C[C@@H](O)[C@H](Cc1ccccc1)NC(=O)OC(C)(C)C)C(=O)N[C@@H](Cc1ccccc1)C(N)=O` [L685,458]: the luciferase activity result was “reduction of luciferase activity”.
